# Residues, ends and D or L forms follow the SMILES beside them. *: point of attachment. X1 = CSc1ncccc1C(=O)*
# Assays:
# [1] = biological target: T1, Neuropeptide Y receptor type 1 (Homo sapiens, UniProt P25929); assay: Displacement of [125I]PYY from human NPY1
# T1 sequence (P25929 whole entry): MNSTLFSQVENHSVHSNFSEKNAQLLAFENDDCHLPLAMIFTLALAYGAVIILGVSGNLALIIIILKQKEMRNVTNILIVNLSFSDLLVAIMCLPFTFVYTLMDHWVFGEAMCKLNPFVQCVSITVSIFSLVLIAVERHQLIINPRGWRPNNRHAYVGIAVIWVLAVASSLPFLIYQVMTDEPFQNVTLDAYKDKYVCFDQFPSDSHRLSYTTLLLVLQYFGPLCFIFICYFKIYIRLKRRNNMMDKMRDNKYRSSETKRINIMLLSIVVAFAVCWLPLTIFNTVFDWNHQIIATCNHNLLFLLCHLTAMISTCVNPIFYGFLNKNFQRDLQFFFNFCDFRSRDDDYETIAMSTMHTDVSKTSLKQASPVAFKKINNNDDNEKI
# [2] = biological target: T2, Neuropeptide Y receptor type 2 (Homo sapiens, UniProt P49146); assay: Agonist activity at human NPY2 by [35S]GTPgammaS […] assay; format: functional
# T2 sequence (P49146 whole entry): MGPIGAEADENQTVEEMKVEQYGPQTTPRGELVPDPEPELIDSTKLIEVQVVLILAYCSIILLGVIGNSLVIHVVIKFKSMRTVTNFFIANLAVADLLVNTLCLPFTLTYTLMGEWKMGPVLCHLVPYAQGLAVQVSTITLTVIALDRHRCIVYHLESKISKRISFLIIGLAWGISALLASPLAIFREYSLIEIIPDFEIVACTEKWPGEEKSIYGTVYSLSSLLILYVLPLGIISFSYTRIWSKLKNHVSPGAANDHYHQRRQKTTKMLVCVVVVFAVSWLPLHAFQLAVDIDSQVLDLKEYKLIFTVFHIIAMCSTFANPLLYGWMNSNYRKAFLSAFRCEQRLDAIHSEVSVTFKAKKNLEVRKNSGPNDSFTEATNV
# [3] = biological target: T2, Neuropeptide Y receptor type 2; assay: Displacement of [125I]PYY from human NPY2
# [4] = biological target: T3, Neuropeptide Y receptor type 5 (Homo sapiens, UniProt Q15761); assay: Displacement of [125I]PYY from human NPY5
# T3 sequence (Q15761 whole entry): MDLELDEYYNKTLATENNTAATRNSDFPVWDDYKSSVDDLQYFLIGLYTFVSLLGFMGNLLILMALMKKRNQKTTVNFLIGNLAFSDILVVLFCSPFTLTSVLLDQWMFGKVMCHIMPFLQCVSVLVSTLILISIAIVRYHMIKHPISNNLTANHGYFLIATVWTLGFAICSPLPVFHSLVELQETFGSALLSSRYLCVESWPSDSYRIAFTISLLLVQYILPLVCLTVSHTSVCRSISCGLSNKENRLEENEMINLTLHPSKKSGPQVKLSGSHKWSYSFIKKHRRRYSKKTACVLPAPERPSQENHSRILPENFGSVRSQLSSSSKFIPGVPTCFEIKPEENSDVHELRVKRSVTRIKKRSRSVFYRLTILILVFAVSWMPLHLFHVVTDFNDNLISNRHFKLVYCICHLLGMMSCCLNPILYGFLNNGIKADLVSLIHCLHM
smiles,measurement,setting,value
CSc1ncccc1C(=O)N[C@@H](CCCNC(=N)N)C(=O)N[C@@H](Cc1cnc[nH]1)C(=O)N[C@@H](Cc1ccc(O)cc1)C(=O)N[C@@H](CC(C)C)C(=O)N[C@@H](CC(N)=O)C(=O)N[C@@H](CC(C)C)C(=O)N[C@@H](CC(C)C)C(=O)N[C@H](C(=O)N[C@@H](CCCNC(=N)N)C(=O)N[C@@H](CCC(N)=O)C(=O)N[C@@H](CCCNC(=N)N)C(=O)N[C@@H](Cc1ccc(O)cc1)C(N)=O)[C@@H](C)O (X1-RHYLNLLTRQRY-NH2),Ki,[1],> 1000 nM
same,EC50,[2],4 nM (agonist)
same,Ki,[3],11 nM (antagonist)
same,Ki,[4],> 1000 nM

# Reference: ChEMBL document CHEMBL1147158, “Novel selective neuropeptide Y2 receptor PEGylated peptide agonists reduce food intake and body weight in mice” (J Med Chem, 2007)
